# “Also recorded” adds a separate entry of the source. Counter-ions that a name gives are not always drawn. Like-named read-outs stand apart in the source and are kept apart here.
# Key:
# in vivo [1] = settings: New Zealand white, rabbit, im, 0.3 mg
# Protocol: (§2) In a prospective, controlled, 5-way crossover study, five New Zealand white rabbits (mean weight 4.8±0.2 were investigated on five different days at least four weeks apart, using a protocol described previously (Gu et al., 1999). Each rabbit received EP 10 mg, EP 20 mg, and EP 40 mg as sublingual tablets, a placebo sublingual tablet (EP 0 mg) (as set forth in Table VI), and an EP 0.3 mg IM injection in the right thigh from EpiPen.
# (§3) Using the same five New Zealand white rabbits (mean weight 4.8±0.2 Kg) as referred to supra, a prospective, controlled, 5-way crossover study was conducted, using a protocol described above (Gu et al., 1999), wherein each rabbit received an EP 40 mg sublingual tablet from each formulation set forth in Table XII and an EP 0.3 mg IM injection in the right thigh from EpiPen.
# (§4) An indwelling catheter (OPTIVA 22G 1″, Johnson & Johnson) was inserted into an ear artery 30 min before dosing A 2 ml blood sample was obtained immediately before dosing and at 5, 10, 15, 20, 30, 40, 60, 90, 120, 150 and 180 minutes afterward.
# (§5) Blood samples were refrigerated within 1 hour of sampling and centrifuged at 4° C. Plasma was frozen at −20° C. Before analysis, the plasma was thawed at room temperature and EP was extracted by a solid-liquid extraction process, with an efficiency of 70%-80%. […] The low range calibration curve was linear over the range of 0.1 to 1.0 ng/ml with a coefficient of variation of 0.8% at 0.1 ng and 1.4% at 1.0 ng. The high range calibration curve was linear over the range of 1.0 to 10.0 ng/ml with a coefficient of variation of 4.8% at 1.0 ng and 1.1% at 10.0 ng.
# (§6) The AUC, Cmax, and Tmax values for each rabbit were compared using repeated measures ANOVA, Tukey-Kramer tests, and paired Students' t-test using NCSS Statistical Analysis Software (NCSS, Kaysville, Utah). Differences were considered to be significant at p<0.05.
# [2] = rabbits; for Serum glucose level: relative to predose baseline; for Serum potassium levels: relative to predose levels
# Protocol: (§1) Animals were evaluated for viability once-daily throughout the study. Cageside clinical observations were performed twice-daily from the initiation of dosing until the end of treatment. Body weights were obtained upon receipt, on Study Day 1 and weekly thereafter.
# in vivo [3] = settings: for AUC(0-inf) / AUC(0-t) / Cmax / Tmax / half-life: both, NZW, rabbit, plasma
# Protocol: Sublingual tablets or IM doses were administered using a Randomized Crossover study design over 5-consecutive weeks.
# as §1
# Blood samples (approximately 1 mL/time point) were obtained from an indwelling arterial catheter placed approximately 30-minutes prior to initiation of sample collection. Samples were collected immediately prior to dosing (pre-dose baseline) and at approximately 5, 10, 15, 20, 30, 40, 60, 90, 120, and 180 minutes after dosing. At later time points, the samples were obtained by direct needle puncture or by removing the catheter and allowing blood to flow directly from the animal's ear artery into the blood collection tube.
# Immediately after collection, the tube was inverted several times to disperse the anticoagulant and then placed on ice until centrifugation. The blood samples were centrifuged (˜2000×g for 10 minutes at 8° C.) within approximately 15-30 minutes of collection to separate the cellular and plasma fractions. The plasma fraction was harvested into screw-capped tubes and stored at approximately −70° C. (±10° C.) until analyzed. […] The remaining red blood cell fraction was discarded.
# The method was validated based on the commercial method developed by ESA Biosciences, Inc. (Chelmsford, Mass.). All standards and reagents for the extraction and chromatography were purchased from ESA. Plasma samples, calibrators and quality control (QC) samples were extracted as follows: Each 0.50 mL aliquot of calibration curve standard, QC or unknown sample was mixed with 0.50 mL of working internal standard (I.S.) stock solution (dihydroxybenzylamine [DHBA], 10 ng/mL) in an ESA extraction tube containing alumina and buffer. The extraction tubes were capped and placed on a rocking shaker for 10 minutes. The tubes were placed on a vacuum manifold and the liquid was aspirated to waste. Each tube was then filled with wash solution which was aspirated to waste. Eluting solution (200 μL) was added to each tube. The tubes were capped and vortex-mixed for 10 minutes. The eluting solution was then forced from the tube under pressure into a microcentrifuge tube. The samples were centrifuged for 15 minutes, transferred to an autosampler vial and a 50 μl aliquot was injected into the HPLC.
# A freshly prepared standard curve was analyzed along with samples on each day of analysis. […] Calibrator concentrations were 0.5, 1, 2, 4, 8, 12, 16 and 20 ng/mL as determined in the validation study. […] For the determination of unknown sample concentrations, two standard curve ranges were used; 0.5 to 20 ng/mL and 12 to […]. Values of unknown samples less than or equal to 20 ng/mL were reported from the lower range, and values greater than 20 ng/mL were reported from the higher range.
# Elimination half-life (T½), maximum concentration (Cmax), time of maximum concentration (Tmax), area under the plasma concentration-time curve from time 0 through the final timepoint (AUC0-t), and area under the plasma concentration-time curve from time 0 extrapolated to infinity (AUC0-∞) were calculated for this study. The noncompartmental model for extravascular administration was used for all pharmacokinetic analyses. The calculation method was linear trapezoidal with linear/log interpolation. The elimination rate constant, lambda z (λz), was determined by WinNonlin using the best fit method.
# [4] = rabbit, in vivo, im, 0.3 mg
# Protocol: as §2, §3, §4, §5, §6
# [5] = cited from earlier work
# [6] = 7.3 mg in 100 μl of a saturated solution of mannitol, monitored over 5 minutes
# [7] = rabbits, 0.3 mg IM, mean ± SD, listed as epinephrine
# [8] = rabbits, 15 mg sublingual tablet, N = 1
# [9] = rabbits, 15 mg sublingual tablet, mean ± SD
# [10] = rabbits, 30 mg sublingual tablet, mean ± SD
# [11] = rabbits, 30 mg sublingual tablet, mean ± SD, listed as epinephrine
# [12] = rabbits, 60 mg sublingual (2x30 mg tablets), mean ± SD
smiles,measurement,setting,value
CNC[C@H](O)c1ccc(O)c(O)c1 [Epinephrine],Cmax,in vivo [1],50.3 ± 17.1 ng/mL
same,Tmax,in vivo [1],21 min
same,Serum glucose level,[2]; 0.3 mg IM,increase in serum glucose level
same,Serum potassium levels,[2]; 30 mg sublingual,decreased
same,Serum glucose level,[2]; 60 mg sublingual,increase in serum glucose level
same,Serum potassium levels,[2]; 60 mg sublingual,decreased
same,AUC(0-inf),in vivo [3]; 15 mg,196 ng·h/mL
same,AUC(0-t),in vivo [3]; 15 mg,74.9 ng·h/mL
same,Cmax,in vivo [3]; 15 mg,119 ± 131 ng/mL
same,Tmax,in vivo [3]; 15 mg,59.2 min
same,half-life,in vivo [3]; 15 mg,181 ± 36.3 min
same,AUC(0-inf),in vivo [3]; 30 mg,86.7 ng·h/mL
same,AUC(0-t),in vivo [3]; 30 mg,82.3 ng·h/mL
same,Cmax,in vivo [3]; 30 mg,142 ± 192 ng/mL
same,Tmax,in vivo [3]; 30 mg,36.7 min
same,half-life,in vivo [3]; 30 mg,86.3 ± 60.5 min
same,AUC(0-inf),in vivo [3]; 60 mg,300 ng·h/mL
same,AUC(0-t),in vivo [3]; 60 mg,242 ng·h/mL
same,Cmax,in vivo [3]; 60 mg,234 ± 182 ng/mL
same,Tmax,in vivo [3]; 60 mg,44.2 min
same,half-life,in vivo [3]; 60 mg,141 ± 135 min
same,AUC(0-inf),"in vivo [3]; im, 0.3 mg",78.4 ng·h/mL
same,AUC(0-t),"in vivo [3]; im, 0.3 mg",54.3 ng·h/mL
same,Cmax,"in vivo [3]; im, 0.3 mg",54.7 ± 28.3 ng/mL
same,Tmax,"in vivo [3]; im, 0.3 mg",24 min
same,half-life,"in vivo [3]; im, 0.3 mg",91.3 ± 44.3 min
same,Cmax1,"in vivo [3]; rabbits, 0.3 mg IM, mean ± SD",26.6 ± 9.4 ng/mL
same,Cmax2,"in vivo [3]; rabbits, 0.3 mg IM, mean ± SD",42.7 ± 18.1 ng/mL
same,Tmax1,"in vivo [3]; rabbits, 0.3 mg IM, mean ± SD",9.0 ± 2.2 min
same,Cmax2,in vivo [3]; [7],42.7 ± 18.1 ng/mL
same,Tmax1,in vivo [3]; [7],9.0 ± 2.2 min
same,Cmax4,in vivo [3]; [8],55.10 ng/mL
same,Tmax4,in vivo [3]; [8],180.0 min
same,Cmax1,in vivo [3]; [9],55.4 ± 87.6 ng/mL
same,Cmax2,in vivo [3]; [9],30.4 ± 25.7 ng/mL
same,Cmax3,in vivo [3]; [9],85.2 ± 127.8 ng/mL
same,Tmax1,in vivo [3]; [9],9.2 ± 2.0 min
same,Tmax3,in vivo [3]; [9],111.7 ± 59.5 min
same,Cmax1,in vivo [3]; [10],147.5 ± 215.7 ng/mL
same,Cmax2,in vivo [3]; [10],82.2 ± 102.1 ng/mL
same,Cmax3,in vivo [3]; [10],45.5 ± 44.3 ng/mL
same,Tmax1,in vivo [3]; [10],8.3 ± 4.1 min
same,Cmax2,in vivo [3]; [11],82.2 ± 102.1 ng/mL
same,Tmax1,in vivo [3]; [11],8.4 ± 4.1 min
same,Cmax1,in vivo [3]; [12],154.0 ± 125.4 ng/mL
same,Cmax2,in vivo [3]; [12],85.4 ± 35.3 ng/mL
same,Cmax3,in vivo [3]; [12],127.8 ± 83.8 ng/mL
same,Tmax1,in vivo [3]; [12],14.2 ± 8.6 min
same,Tmax1,"in vivo [3]; rabbits, 60 mg sublingual (2x30 mg tablets), mean ± SD, listed as epinephrine",14.2 ± 8.6 min
same,AUC,[4],2431 ± 386 ng/mL/min
OC[C@@H](O)[C@@H](O)[C@H](O)[C@H](O)CO [Mannitol],Water solubility,[5],1 gm in 5.5 ml water
"CNC[C@H](O)c1ccc(O)c(O)c1 [EPBT, (−)-3,4-dihydroxy-α-[(methylamino)methyl]benzyl alcohol (+)-tartrate (1:1) salt]",Water solubility,[5],1 gm in 3 ml water
same,Dissolution of crystals,[6],incomplete after 5 minutes; also recorded: slow and incomplete at the end of 5 minutes
